According to patent US7713994B2 (Wyeth LLC, priority 2005, dated 2010):
Like-named read-outs stand apart in the source and are kept apart here.

Columns and labels:
cyclin D1/cdk 4 enzyme = biological target: T1, cyclin D1/cdk 4 enzyme (Homo sapiens, UniProt P11802); test: CDK4 ELISA kinase assay (phospho-Rb ser 795 detection); type: biochemical
T1 construct: made in house; host or cells: Sf9 insect cells, recombinant baculovirus
Method in brief: (§1)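 Screening was done at 10 ug/ml compound. Each partially purified cyclin/CDK complex, produced in baculovirus-infected Sf9 cells, phosphorylated a coated GST-Rb C-terminal fragment with 200 μM ATP, and Ser795 phosphorylation was quantified by HRP-ELISA at 450 nm.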

cyclin E/CDK2 enzyme = biological target: T2, cyclin E/CDK2 enzyme (Homo sapiens, UniProt P24941); test: CDK2 ELISA kinase assay (phospho-Rb ser 795 detection); type: biochemical
T2 construct: made in house; host or cells: Sf9 insect cells, recombinant baculovirus
Method in brief: as §1

cyclin B/CDK1 enzyme = biological target: T3, cyclin B/CDK1 enzyme (Homo sapiens, UniProt P06493); test: CDK1 ELISA kinase assay (phospho-Rb ser 795 detection); type: biochemical
T3 construct: purchased New England BioLabs; host or cells: Sf9 insect cells, recombinant baculovirus
T3 sequence (P06493 whole entry): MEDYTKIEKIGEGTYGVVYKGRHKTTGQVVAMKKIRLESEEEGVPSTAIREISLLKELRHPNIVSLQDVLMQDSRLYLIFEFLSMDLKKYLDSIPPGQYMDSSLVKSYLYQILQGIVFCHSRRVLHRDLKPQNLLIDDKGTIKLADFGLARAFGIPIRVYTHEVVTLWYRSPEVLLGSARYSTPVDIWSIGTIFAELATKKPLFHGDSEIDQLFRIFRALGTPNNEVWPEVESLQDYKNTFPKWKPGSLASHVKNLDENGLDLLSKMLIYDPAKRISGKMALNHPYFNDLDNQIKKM
T3 sequence (P14635 whole entry partner): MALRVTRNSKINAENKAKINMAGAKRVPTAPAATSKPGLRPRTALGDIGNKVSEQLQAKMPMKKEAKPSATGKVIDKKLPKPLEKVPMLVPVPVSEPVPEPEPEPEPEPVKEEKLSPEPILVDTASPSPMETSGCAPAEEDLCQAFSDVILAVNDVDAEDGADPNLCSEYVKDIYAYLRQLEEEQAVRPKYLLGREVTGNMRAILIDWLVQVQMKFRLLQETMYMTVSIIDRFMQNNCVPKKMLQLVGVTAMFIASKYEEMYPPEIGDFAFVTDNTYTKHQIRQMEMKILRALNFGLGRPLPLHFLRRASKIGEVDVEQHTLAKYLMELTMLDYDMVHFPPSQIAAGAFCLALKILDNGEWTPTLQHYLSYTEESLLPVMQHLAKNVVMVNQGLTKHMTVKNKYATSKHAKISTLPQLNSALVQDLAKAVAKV
Method in brief: as §1

BT474 = test: Cytotoxicity assay (SRB), BT474; type: cell-based; settings: BT474 cells, 6 days, SRB, read-out: In Vitro Cellular Activity IC50 BT474
Method in brief: (§2)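 Overnight-seeded monolayers (4000–12000 cells/well by line) receive compound in 5% FBS medium at 37 °C, 7% CO2. After 3 d, or 6 d for BT474, cellular protein is fixed with cold TCA, stained with SRB and read at 540 nm against untreated wells.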

HCT-116 = test: Cytotoxicity assay (SRB), HCT-116; type: cell-based; settings: HCT116 cells, 3 days, SRB, read-out: In Vitro Cellular Activity IC50 HCT116
Method in brief: as §2

LoVo = test: Cytotoxicity assay (SRB), LoVo; type: cell-based; settings: LoVo cells, 3 days, SRB, read-out: In Vitro Cellular Activity IC50 LOVO
Method in brief: as §2

MCF-7 = test: Cytotoxicity assay (SRB), MCF-7; type: cell-based; settings: MCF-7 cells, 3 days, SRB, read-out: In Vitro Cellular Activity IC50 MCF-7
Method in brief: as §2

[1] = In Vitro Enzyme Assays, 200 μM ATP, read-out: CDK4 IC50
[2] = In Vitro Enzyme Assays, read-out: CDK2 IC50
[3] = In Vitro Enzyme Assays, read-out: CDK1 IC50
[4] = In Vitro Enzyme Assay, cyclin D1/cdk 4, read-out: CDK4 IC50
[5] = In Vitro Enzyme Assay, cyclin E/CDK2, read-out: CDK2 IC50
[6] = In Vitro Enzyme Assay, cyclin B/CDK1, read-out: CDK1 IC50

T1 sequence (P11802 whole entry, species assumed): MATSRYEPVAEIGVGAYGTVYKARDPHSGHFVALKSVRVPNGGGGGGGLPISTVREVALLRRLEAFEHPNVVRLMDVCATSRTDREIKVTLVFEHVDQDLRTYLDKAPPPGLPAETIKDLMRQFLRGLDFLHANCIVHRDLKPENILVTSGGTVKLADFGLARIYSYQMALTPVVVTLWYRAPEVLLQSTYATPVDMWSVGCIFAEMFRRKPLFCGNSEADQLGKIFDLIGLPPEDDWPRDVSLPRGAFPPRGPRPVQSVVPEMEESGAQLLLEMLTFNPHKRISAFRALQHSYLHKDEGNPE
T1 sequence (P24385 whole entry partner, species assumed): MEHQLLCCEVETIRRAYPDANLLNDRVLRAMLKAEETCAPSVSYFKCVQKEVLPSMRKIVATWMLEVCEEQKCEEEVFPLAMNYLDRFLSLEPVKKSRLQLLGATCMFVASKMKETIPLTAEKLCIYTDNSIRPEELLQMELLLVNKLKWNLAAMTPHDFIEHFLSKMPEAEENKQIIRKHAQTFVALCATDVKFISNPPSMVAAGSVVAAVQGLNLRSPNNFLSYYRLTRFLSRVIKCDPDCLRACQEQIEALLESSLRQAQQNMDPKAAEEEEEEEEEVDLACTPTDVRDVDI

Row | IC50 (cyclin D1/cdk 4 enzyme; [1]) | IC50 (cyclin E/CDK2 enzyme; [2]) | IC50 (cyclin B/CDK1 enzyme; [3]) | IC50 (cyclin D1/cdk 4 enzyme; [4]) | IC50 (cyclin E/CDK2 enzyme; [5]) | IC50 (cyclin B/CDK1 enzyme; [6]) | SMILES | IC50 (BT474; Homo sapiens, BT-474, 144 h) | IC50 (HCT-116; Homo sapiens, HCT-116, 72 h) | IC50 (LoVo; Homo sapiens, LoVo, 72 h) | IC50 (MCF-7; Homo sapiens, MCF7, 72 h) | IC50 (BT474) | IC50 (HCT-116) | IC50 (LoVo) | IC50 (MCF-7)
1 | 0.18 µM | > 50 µM | > 50 µM |  |  |  | CN1CCCC1c1ccc(N/C=C2\C(=O)NC(=O)c3ccc(-c4cccs4)cc32)cc1 (stereo not drawn) [Example 450, 4-{[4-(1-Methyl-pyrrolidin-2-yl)-phenylamino]-methylene}-6-thiophen-2-yl-4H-isoquinoline-1,3-dione] | 1.9 µM | 2.5 µM | 2.8 µM | 2.5 µM |  |  |  | 
2 | 0.06 µM | > 50 µM | > 50 µM |  |  |  | CN1CCCC1c1ccc(N/C=C2\C(=O)NC(=O)c3ccc(-c4ccoc4)cc32)cc1 (stereo not drawn) [Example 451, 6-Furan-3-yl-4-{[4-(1-methyl-pyrrolidin-2-yl)-phenylamino]-methylene}-4H-isoquinoline-1,3-dione] | 1 µM | 2.8 µM | 2.5 µM | 1 µM |  |  |  | 
3 |  |  |  | 0.47 µM | > 50 µM | > 50 µM | CCNCC1CCN(c2ccc(N/C=C3\C(=O)NC(=O)c4ccc(I)cc43)cc2)CC1 [Example 456, (4Z)-4-{[(4-{4-[(Ethylamino)methyl]piperidin-1-yl}phenyl)amino]methylene}-6-iodoisoquinoline-1,3(2H,4H)-dione] | 9.2 µM | 2.7 µM | 8.3 µM | 11 µM |  |  |  | 
4 |  |  |  | 0.42 µM | > 50 µM | > 50 µM | O=C1NC(=O)c2ccc(I)cc2/C1=C/Nc1ccc(C2CCCN2)cc1 (stereo not drawn) [Example 462, 6-Iodo-4-[(4-pyrrolidin-2-yl-phenylamino)-methylene]-4H-isoquinoline-1,3-dione] | 4.8 µM | 2.6 µM | 3.6 µM | 3.5 µM |  |  |  | 
5 |  |  |  | 0.14 µM | > 50 µM | > 50 µM | O=C1NC(=O)c2ccc(I)cc2/C1=C/Nc1ccc(C2CCCN2CCO)cc1 (stereo not drawn) [Example 464, 4-({4-[1-(2-Hydroxy-ethyl)-pyrrolidin-2-yl]-phenylamino}-methylene)-6-iodo-4H-isoquinoline-1,3-dione] | 6.6 µM | 3.2 µM | 4.6 µM | 2.4 µM |  |  |  | 
6 |  |  |  | 0.18 µM | 22 µM | > 50 µM | CCN1CCCC1c1ccc(N/C=C2\C(=O)NC(=O)c3ccc(I)cc32)cc1 (stereo not drawn) [Example 465, 4-{[4-(1-Ethyl-pyrrolidin-2-yl)-phenylamino]-methylene}-6-iodo-4H-isoquinoline-1,3-dione] | 3.8 µM | 2.9 µM | 5 µM | 1.3 µM |  |  |  | 
7 |  |  |  | 0.05 µM | > 50 µM | > 50 µM | CCN1CCCC1c1ccc(N/C=C2\C(=O)NC(=O)c3ccc(-c4ccoc4)cc32)cc1 (stereo not drawn) [Example 473, 4-{[4-(1-Ethyl-pyrrolidin-2-yl)-phenylamino]-methylene}-6-furan-3-yl-4H-isoquinoline-1,3-dione] | 1.5 µM | 2.4 µM | 2.3 µM | 2 µM |  |  |  | 

The remaining lines, values behind:

Row | SMILES | IC50 (cyclin D1/cdk 4 enzyme; [1]) | IC50 (cyclin E/CDK2 enzyme; [2]) | IC50 (cyclin B/CDK1 enzyme; [3]) | IC50 (cyclin D1/cdk 4 enzyme; [4]) | IC50 (cyclin E/CDK2 enzyme; [5]) | IC50 (cyclin B/CDK1 enzyme; [6]) | IC50 (BT474; Homo sapiens, BT-474, 144 h) | IC50 (HCT-116; Homo sapiens, HCT-116, 72 h) | IC50 (LoVo; Homo sapiens, LoVo, 72 h) | IC50 (MCF-7; Homo sapiens, MCF7, 72 h) | IC50 (BT474) | IC50 (HCT-116) | IC50 (LoVo) | IC50 (MCF-7)
8 | CN(C)CCNCC1CCN(c2ccc(N/C=C3\C(=O)NC(=O)c4ccc(I)cc43)cc2)CC1 [Example 446, (4Z)-4-[({4-[4-({[2-(Dimethylamino)ethyl]amino}methyl)piperidin-1-yl]phenyl}amino)methylene]-6-iodoisoquinoline-1,3(2H,4H)-dione] | 0.28 µM | > 50 µM | > 50 µM |  |  |  | 3.4 µM | 1.7 µM | 2.9 µM | 3 µM |  |  |  | 
9 | CN1CCN(c2ccc(N/C=C3\C(=O)NC(=O)c4ccc(I)cc43)c(O)n2)CC1 [Example 447, (4Z)-4-({[2-Hydroxy-6-(4-methylpiperazin-1-yl)pyridin-3-yl]amino}methylene)-6-iodoisoquinoline-1,3(2H,4H)-dione] | 7.5 µM | 17.6 µM | 12.9 µM |  |  |  | 3 µM | 2 µM | 3.5 µM | 3.6 µM |  |  |  | 
10 | CN1CCN(c2ccc(N/C=C3\C(=O)NC(=O)c4ccc(-c5coc(CN6CCCC6)c5)cc43)nc2)CC1 [Example 449, (4Z)-4-({[5-(4-Methylpiperazin-1-yl)pyridin-2-yl]amino}methylene)-6-[5-(pyrrolidin-1-ylmethyl)-3-furyl]isoquinoline-1,3(2H,4H)-dione] | 3.6 µM | > 50 µM | > 50 µM |  |  |  | 8.1 µM | 2.6 µM | 2.2 µM | 3.5 µM |  |  |  | 
11 | Cn1ccc(CN/C=C2\C(=O)NC(=O)c3ccc(I)cc32)cc1=O [Example 453, (4Z)-6-Iodo-4-({[(1-methyl-2-oxo-1,2-dihydropyridin-4-yl)methyl]amino}methylene)isoquinoline-1,3(2H,4H)-dione] | 0.06 µM | 1 µM | 12.6 µM |  |  |  | 4 µM | 3.7 µM | 3.3 µM | 4.3 µM |  |  |  | 
12 | CN(C)CC1CCN(c2ccc(N/C=C3\C(=O)NC(=O)c4ccc(I)cc43)cc2)CC1 [Example 454, (4Z)-4-{[(4-{4-[(Dimethylamino)methyl]piperidin-1-yl}phenyl)amino]methylene}-6-iodoisoquinoline-1,3(2H,4H)-dione] | 0.36 µM | > 50 µM | > 50 µM |  |  |  | 10.5 µM | 7.4 µM | 10.5 µM | 11.5 µM |  |  |  | 
13 | CN1CCC(N(C)CC2CCN(c3ccc(N/C=C4\C(=O)NC(=O)c5ccc(I)cc54)cc3)CC2)C1 (stereo not drawn) [Example 455, (4Z)-6-Iodo-4-({[4-(4-{[methyl(1-methylpyrrolidin-3-yl)amino]methyl}piperidin-1-yl)phenyl]amino}methylene)isoquinoline-1,3(2H,4H)-dione] | 5 µM | > 50 µM | > 50 µM |  |  |  | 3.1 µM | 2.4 µM | 3.3 µM | 3.1 µM |  |  |  | 
14 | CN1CCN(c2ccc(N/C=C3\C(=O)NC(=O)c4ccc(-c5ccoc5)cc43)c(F)n2)CC1 [Example 457, (4Z)-4-({[2-Fluoro-6-(4-methylpiperazin-1-yl)pyridin-3-yl]amino}methylene)-6-(3-furyl)isoquinoline-1,3(2H,4H)-dione] |  |  |  | 0.19 µM | 19.4 µM | 24.2 µM |  |  |  |  | 1.6 µM | 0.96 µM | 1 µM | 2.1 µM
15 | O=C1NC(=O)c2ccc(-c3ccoc3)cc2/C1=C/Nc1ccc(CN2CCC[C@H]2CO)cc1 [Example 463, 6-Furan-3-yl-4-{[4-(2-hydroxymethyl-pyrrolidin-1-ylmethyl)-phenylamino]-methylene}-4H-isoquinoline-1,3-dione] |  |  |  | 0.06 µM | > 50 µM | > 50 µM | 1.7 µM | 2.3 µM | 2 µM | 0.9 µM |  |  |  | 
16 | O=C1NC(=O)c2ccc(-c3ccco3)cc2/C1=C/Nc1ccc(CN2CCC[C@H]2CO)cc1 [Example 466, 6-Furan-2-yl-4-{[4-(2-hydroxymethyl-pyrrolidin-1-ylmethyl)-phenylamino]-methylene}-4H-isoquinoline-1,3-dione] |  |  |  | 0.13 µM | > 50 µM | > 50 µM | 1.4 µM | 2.1 µM | 2.1 µM | 1.2 µM |  |  |  | 
17 | O=C1NC(=O)c2ccc(-c3nccs3)cc2/C1=C/Nc1ccc(CN2CCC[C@H]2CO)cc1 [Example 472, 4-{[4-(2-Hydroxymethyl-pyrrolidin-1-ylmethyl)-phenylamino]-methylene}-6-thiazol-2-yl-4H-isoquinoline-1,3-dione] |  |  |  | 0.6 µM | > 50 µM | > 50 µM | 9.1 µM | 5 µM | 8.9 µM | 14.2 µM |  |  |  | 
18 | CN1CCN(c2ncc(N/C=C3\C(=O)NC(=O)c4ccc(I)cc43)cn2)CC1 [Example 475, (4Z)-6-Iodo-4-({[2-(4-methylpiperazin-1-yl)pyrimidin-5-yl]amino}methylene)isoquinoline-1,3(2H,4H)-dione] |  |  |  | 0.7 µM | > 50 µM | > 50 µM | 8.1 µM | 3.2 µM | 7.7 µM | 2.2 µM |  |  |  | 
